Measurements taken from paper PMC12948223, “HSP70 Interactome‐Mediated Proteolysis Targeting Chimera (HSP70‐PROTAC) for Ferroptosis‐Driven Cancer Treatment” (Advanced Science, 2025).

Key:
intracellular ROS = experiment: Intracellular ROS (DCFH-DA, CLSM) in HT1080 cells; assay type: cell-based, human; conditions: 1 µM, 24 h
Procedure: To assess the total intracellular levels of reactive oxygen species (ROS), a DCFH‐DA (Dichloro‐dihydro‐fluorescein diacetate) assay kit was utilized. Briefly, HT1080 cells were seeded into confocal laser culture dishes and allowed to adhere for 24 h. Afterward, the cells were treated with GDAz‐3 at a concentration of 1 µM for 24 h. Subsequently, a DCFH‐DA probe was added to the cells and they were incubated for 20 min. After washing twice with PBS, the cells were visualized and imaged using a confocal laser scanning microscopy (CLSM).

HT1080 xenograft tumor = HT1080 xenograft tumor mouse model, antitumor efficacy and safety; assay type: in vivo; conditions: for TGI (tumor growth inhibition): 17 days
Procedure: Motivated by the aforementioned in vitro findings, we subsequently sought to evaluate the in vivo antitumor efficacy of GDAz‐3 using an HT1080 xenograft tumor mouse model. The tumor‐bearing mice were randomly divided into six groups, minimizing weight and tumor size differences among the groups (n = 6 in each group). The treatment group mice were administered once daily by intraperitoneal injection (IP) with GDAz‐3 at a dosage of 30 or 60 mg kg^−1, while the control group animals were treated with the corresponding solvent, ML162, and apoptozole at a dosage of 30 mg kg^−1. Additionally, we set up a drug combination group to confirm the superiority of GDAz‐3. After treatment for 17 days, animals were humanely euthanized and the tumors were excised (Figure 7B). […] The advantage of the safety of GDAz‐3 was also determined by the hematoxylin and eosin (H&E) staining. […] In general, compared with the single inhibitor or their combination, the in vivo antitumor study confirmed the efficacy and safety of GDAz‐3.
The experimental procedures of the animal experiments were permitted by the Hangzhou Institute of Medicine (HIM), Chinese Academy of Sciences (AP2024‐07‐0010). Male BALB/c nude mice (6 weeks old) were housed under pathogen‐free conditions, maintained at a constant room temperature, and fed standard rodent chow and water. An HT1080 fibrosarcoma xenograft model in nude mice was established through subcutaneous transplantation. When the tumors emerged, the mice were randomly divided into six groups with six mice in each group: GDAz‐3‐treated at 30 or 60 mg kg^−1 group and control groups, including the vehicle group, and each of the two inhibitor‐treated groups (ML162 and apoptozole) at 30 mg kg^−1, and their combinations. The mice were intraperitoneally (IP) injected daily according to their body weight. Body weight and tumor size were measured every other day, and the tumor volume and body weight were recorded every other day after drug treatment. After treatment, the animals were euthanized by cervical dislocation, and the tumor bulks were peeled off and weighed. The organ tissues (tumor, heart, liver, spleen, lung, and kidney) were harvested and fixed with 4% paraformaldehyde for hematoxylin‐eosin (H&E) and immunohistochemistry (IHC) staining. In addition, the expression of GPX4 in tumor samples was analyzed in vehicle‐ and GDAz‐3‐treated groups by western blot assay.

GPX4 = molecular target: T1, GPX4 (Homo sapiens, UniProt P36969); experiment: GPX4 degradation by western blot in MDA-MB-231 cells; assay type: cell-based; set-up: determine the changes in the endogenous levels of GPX4 by western blot assay; endogenous in cells; conditions: 24 h
T1 sequence (P36969 1-170 isoform P36969-2): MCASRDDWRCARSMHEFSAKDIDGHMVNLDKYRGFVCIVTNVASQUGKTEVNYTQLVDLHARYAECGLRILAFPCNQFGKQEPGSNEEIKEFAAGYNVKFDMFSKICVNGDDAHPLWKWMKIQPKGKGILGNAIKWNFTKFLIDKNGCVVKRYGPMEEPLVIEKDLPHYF
Procedure: To further confirm this degradation efficacy, an in‐cell western (ICW) assay, a quantitative immunofluorescence cell‐based technique, was performed to quantify the relative expression level of GPX4 after treatment with GDAz‐3 for 24 h. […] Given the promising GPX4 degradation activity of GDAz‐3, we extended our evaluation to additional ferroptosis‐sensitive cell lines, including triple‐negative breast cancer cells (MDA‐MB‐231) and melanoma cells (mouse B16‐F10). […] Based on the observation that GDAz‐3 was particularly effective in HT1080 cells, we selected this cell line for further degradation mechanism and ferroptosis pharmacodynamics studies.
Cells were seeded at a density of 4 × 10^5 cells well^−1 in 6‐well plates and allowed to incubate overnight. Cells were incubated with the indicated treatments. Thereafter, the cells were collected and lysed with RIPA buffer containing serine protease and phosphatase inhibitors for 30 min on ice. Proteins were quantified by using a BCA protein assay kit (Beyotime). […] Ultimately, the membrane was washed five times, and the antibody‐protein complexes were visualized using an ECL luminescence reagent (Biosharp, Shanghai, China). The relative intensities of the bands were analyzed by ImageJ and normalized to a loading control.

Fe2+ = experiment: Intracellular Fe2+ in HT1080 cells; assay type: cell-based, human; conditions: HT1080 cells, 0.1, 0.5 and 1 µM, 24 h
Procedure: HT1080 cells were seeded into 10‐cm culture dishes at a density of 2 × 10⁶ cells overnight, and various concentrations of GDAz‐3 (0.1, 0.5, and 1 µM) were added. The cells were digested and collected after treatment with drugs for 24 h. The cells were detected according to the instructions of the Cell Ferrous Iron (Fe^2⁺) Fluorometric Assay Kit (E‐BC‐F101, Elabscience Biotechnology Co., Ltd.). In brief, the cells were washed twice with Reagent 1 working solution in the kit, and then Reagent 2 working solution was added (1 mL per 10⁶ cells). The cells were incubated at 37 °C in the dark for 30–60 min. The samples were centrifuged at 300 × g for 5 min, and the supernatant was discarded. The cells were washed two to three times with Reagent 1 working solution. After resuspending the cells in 0.2–0.5 mL of Reagent 1 working solution, the samples were detected using a fluorescence microplate reader (excitation wavelength: 542 nm, emission wavelength: 575 nm).

COc1ccc(-c2nc(-c3cc(C(F)(F)F)cc(C(F)(F)F)c3)n(Cc3ccc(C(=O)NCCOCCOCCOCCn4cc(COc5ccc(N(C(=O)CCl)C(C(=O)NCCc6ccccc6)c6cccs6)cc5Cl)nn4)cc3)c2-c2ccc(OC)cc2)cc1 (stereo not shown) [GDAz-3, 4-((2-(3,5-bis(trifluoromethyl)phenyl)-4,5-bis(4-methoxyphenyl)-1H-imidazol-1-yl)methyl)-N-(2-(2-(2-(2-(4-((2-chloro-4-(2-chloro-N-(2-oxo-2-(phenethylamino)-1-(thiophen-2-yl)ethyl)acetamido)phenoxy)methyl)-1H-1,2,3-triazol-1-yl)ethoxy)ethoxy)ethoxy)ethyl)benzamide]
Level of intracellular ROS (intracellular ROS): enhanced
TGI (tumor growth inhibition) (HT1080 xenograft tumor; 30 mg/kg IP once daily): 52%
TGI (tumor growth inhibition) (HT1080 xenograft tumor; 60 mg/kg IP once daily): 67%
Body weight of the mice (HT1080 xenograft tumor; 30 or 60 mg/kg IP once daily): did not obviously reduce the body weight
H&E staining of major organs (heart, liver, spleen, lung, kidney) (HT1080 xenograft tumor; GDAz-3-treated group): did not observe significant toxic changes in the major organs
GPX4 degradation (GPX4): effectively induce the degradation of GPX4 to varying extents
Content of Fe2+ (Fe2+): increased
